Results: patent US20250250267A1, “NITROGEN-CONTAINING BRIDGED HETEROCYCLIC COMPOUND, PREPARATION METHOD THEREFOR, AND MEDICAL USE THEREOF” (Jiangsu Hengrui Pharmaceuticals Co., Ltd., priority 2020, published 2025)

Experiments:
[1] = target: human complement factor B (Homo sapiens (Human), UniProt P00751); test: biochemical
Method: Assays for the C3a des Arg epitope generated after C3 is cleaved can be used to evaluate the efficiency of C3 being hydrolyzed, i.e., the C3bBb enzyme activity, and thereby to evaluate the effects of the compounds on the C3bBb enzyme.
A 100 mM Na2CO3 solution and a 100 mM NaHCO3 solution were prepared and mixed in a ratio of Na2CO3 to NaHCO3 of 3:7 (v/v) to adjust the pH to 9.5. The mixture was stored at room temperature for later use. […] The compounds and 100% DMSO were then 20-fold diluted in C3 reaction buffer (PBS pH 7.4, 1 mM MgCl2, 0.05% CHAPS).
Cleavage reactions of the C3 protein: In a 96-well low-volume white plate, 10-μL reaction systems were prepared by adding CVF:Bb (to a final concentration of 2 nM) and 1 μL of the above test compounds and DMSO diluted in C3 reaction buffer to C3 reaction buffer (PBS pH 7.4, 1 mM MgCl2, 0.05% CHAPS). The plate was incubated at room temperature for 1 h. […] Human complement factor C3 was added to the reaction systems to a final concentration of 500 nM. After they were well mixed, the mixtures were reacted in a constant-temperature incubator at 37° C. for 2 h. Among the reaction mixtures, the reaction well that contained only 500 nM human complement factor C3 was used as a negative control. To a 96-well adsorption black plate, 97 μL of the carbonic acid buffer (pH 9.5) was added, and the C3 protein cleavage reaction mixtures were added at 3 μL/well. After they were well mixed, the plate was sealed and incubated at 4° C. overnight.
C3a des Arg assays: The plate was washed 3 times with 300 μL/well TBST (0.05% tween 20) solution, the StartingBlock™ T20 (TBS) blocking buffer was added at 300 μL/well, and the plate was incubated at 37° C. for 5 min. […] The plate was washed 3 times with 300 μL/well PBST solution, the goat anti-mouse IgG H&L (HRP) antibody was 1:5000 diluted in PBST solution and added at 100 μL/well, and the plate was incubated at 37° C. for 30 min. […]
The inhibition rate was calculated using the following formula:

[2] = test system: human complement alternative pathway; test: Inhibition of human complement alternative pathway (zymosan-activated human serum with EGTA, C5b-9 formation); type: biochemical; conditions: zymosan A, C5b-9 readout
From the text: The alternative pathway can be activated by zymosan. The extent of activation of the alternative pathway can be evaluated by assaying the formation of the C5b-9 complex. […] Since the activation of the two pathways requires both magnesium and calcium ions, and the alternative pathway requires magnesium ions only, after chelation with the calcium ion chelator EGTA, the alternative pathway is not inhibited, while the classical pathway and the lectin pathway are. After chelation with EDTA, the three pathways are all inhibited. Therefore, the inhibitory effects of the small-molecule compounds on the alternative pathway can be evaluated by activating the complement alternative pathway in human serum with zymosan in the presence of the EGTA chelator and assaying the formation of the C5b-9 complex.
Zymosan A powder was resuspended at 10 mg/mL in TBS solution and activated by heating at 100° C. for 2 h. After the activation, the suspension was centrifuged at 4000 rpm for 30 min, and the supernatant was discarded. The residue was resuspended in TBS to form a 50 mg/mL suspension. The suspension was aliquoted and stored in a −20° C. freezer. The day before the experiment, the activated zymosan A solution was diluted to 1 mg/mL with the carbonic acid buffer (pH 9.5) and added to a 96-well adsorption black plate at 100 μL/well, and the plate was coated at 4° C. overnight.
A 100 mM Na2CO3 solution and a 100 mM NaHCO3 solution were prepared and mixed in a ratio of Na2CO3 to NaHCO3 of 3:7 (v/v) to adjust the pH to 9.5. The mixture was stored at room temperature for later use.
Activation reactions of the complement alternative pathway: Human serum was 5-fold diluted with PBS solution to form a 20% serum solution, and the solution was placed on ice for later use. 20 mM test compounds dissolved in 100% DMSO were serially diluted with 100% DMSO to 2000, 500, 125, 31.25, 7.8125, 0.488281, 0.12207, 0.030518, and 0.007629 μM, with the blank well containing 100% DMSO. The compounds and 100% DMSO were then 20-fold diluted in 2× EGTA reaction buffer (4.2 mM HEPES, 0.15 mM CaCl2), 140 mM NaCl, 4.5 mM MgCl2, 0.1% gelatin, 20 mM EGTA). Meanwhile, 100% DMSO was 20-fold diluted in 2× EDTA reaction buffer (4.2 mM HEPES, 0.15 mM CaCl2), 140 mM NaCl, 4.5 mM MgCl2, 0.1% gelatin, 20 mM EDTA) as a negative control well. 40-μL serum-EGTA reaction mixtures were prepared by mixing well 20 μL of 20% human serum, 4 μL of the above test compounds or DMSO diluted in 2× EGTA reaction buffer, and 16 μL of 2× EGTA reaction buffer. Serum-EGTA-DMSO was used as a blank control. The mixtures were incubated at room temperature for 30 min. In the negative control well, a 40-μL serum-EDTA reaction mixture was prepared by mixing well 20 μL of 20% human serum, 4 μL of the above DMSO diluted in 2× EDTA reaction buffer, and 16 μL of 2× EDTA reaction buffer. The mixture was incubated at room temperature for 30 min. The 96-well adsorption black plate coated with zymosan A one day ahead of time was washed 3 times with 300 μL/well TBST (0.05% tween 20) solution, and the serum-EGTA-test compound reaction mixtures, the blank control well, and the serum-EDTA-DMSO reaction mixture (negative control well) were added at 25 L/well. The mixtures were reacted at 37° C. for 40 min. The plate was washed 3 times with 300 μL/well TBST solution, the StartingBlock™ T20 (TBS) blocking buffer was added at 300 μL/well, and the plate was incubated at 37° C. for 15 min.

[3] = test system: IgAN patients; conditions: 4 IgAN patients, end of phase 2; cited from earlier work
[4] = test system: patients with PNH and active hemolysis; conditions: cited from earlier work
[5] = test system: passive heymann nephritis rats; test: Therapeutic effects on Heymann nephritis in rats induced by sheep anti-rat Fx1A serum; type: in vivo; conditions: for decrease in the ratio of total protein/creatinine in rat urine compared to the model group: day 14; for decrease in rat serum iC3b+C3d compared to the model group: serum day 15
From the text: Experimental animals: laboratory male SD rats, provided by Vital River Laboratory Animal Technology Co., Ltd. (production license number: SCXK (Zhejiang) 2019-0001; animal certificate number: 20210401Abzz0619000322; weighing 180-200 g at purchase).
After the acclimatization, the male SD rats were grouped as follows according to total protein in urine and body weight in the 2 days before the experiment:
On day 0 of the experiment, the model group and administration groups were given a single tail vein injection of Fx1A serum (5 mL/kg), and the normal group was given a tail vein injection of normal goat serum. […] The experiment ended on day 15. Two-hour urine was collected on days 2, 4, 6, 8, 11, and 14 and assayed for creatinine and total protein. Serum was collected on day 15 for complement activation fragment (C3d+iC3b) analysis.
The experimental data are expressed as mean±standard error (SEM). Statistical comparison was performed using Excel software t-test. The data of the model group and the data of the blank control group were analyzed and compared to judge whether a significant mathematical statistical significance exists. *P<0.05 indicates a significant difference between the model group and the blank control group, **P<0.01 indicates a highly significant difference between the model group and the blank control group, and ***P<0.001 indicates a very highly significant difference between the model group and the blank control group. #P<0.05 indicates a significant difference between an administration group and the model group, ##P<0.01 indicates a highly significant difference between an administration group and the model group, and ###P<0.001 indicates a very highly significant difference between an administration group and the model group.

## CCO[C@H]1C[C@H]2CCC(c3ccc(C(=O)O[C@@H]4O[C@H](C(=O)O)[C@@H](O)[C@H](O)[C@H]4O)cc3)(C1)N2Cc1c(OC)cc(C)c2[nH]ccc12 (stereo in doubt) [Example 5, (2S,3S,4S,5R,6S)-6-((4-((1S,3S,5R)-3-Ethoxy-8-((5-methoxy-7-methyl-1H-indol-4-yl)methyl)-8-azabicyclo[3.2.1]octan-1-yl)benzoyl)oxy)-3,4,5-trihydroxytetrahydro-2H-pyran-2-carboxylic acid]
[1]
  IC50: 30 nM
[2]
  IC50: 74.6 nM

## CCO[C@H]1C[C@H]2CCC(c3ccc(C(=O)O)cc3)(C1)N2Cc1c(C)cc(C)c2[nH]ccc12 (stereo in doubt) [Example 3, 4-((1S,3S,5R)-8-((5,7-Dimethyl-1H-indol-4-yl)methyl)-3-ethoxy-8-azabicyclo[3.2.1]octan-1-yl)benzoic acid]
[1]
  IC50: 4.9 nM
[2]
  IC50: 49.8 nM

## CCO[C@H]1C[C@H]2CC[C@](c3ccc(C(=O)O)cc3)(C1)N2Cc1c(OC)cc(C)c2[nH]ccc12 (relative stereo) [Example 1, (±)-rel-4-((1S,3S,5R)-3-Ethoxy-8-((5-methoxy-7-methyl-1H-indol-4-yl)methyl)-8-azabicyclo[3.2.1]octan-1-yl)benzoic acid]
[2]
  IC50: 43.2 nM

## OMS721: humanized monoclonal antibody targeting the MASP-2 protein developed by Omeros Inc.
[3]
  proteinuria index: significantly improved

## CCO[C@H]1C[C@H]2CCC(c3ccc(C(=O)O)cc3)(C1)N2Cc1c(C2CC2)cc(C)c2[nH]ccc12 (stereo in doubt) [Example 4, 4-((1S,3S,5R)-8-((5-Cyclopropyl-7-methyl-1H-indol-4-yl)methyl)-3-ethoxy-8-azabicyclo[3.2.1]octan-1-yl)benzoic acid]
[1]
  IC50: 1.6 nM
[2]
  IC50: 50.6 nM

## CCO[C@H]1CCN(Cc2c(OC)cc(C)c3[nH]ccc23)[C@H](c2ccc(C(=O)O)cc2)C1 [LNP023]
[4]; at 13 weeks, all the patients, LNP023 twice daily with eculizumab
  decrease in LDH: 34-81%
[4]; at 13 weeks
  males with Hb>120 g/L: 71%
[4]; twice daily for at least 13 weeks with eculizumab
  tolerability: well tolerated
[5]; 20 mg/kg orally twice daily
  day from which statistical decreases in urine total protein/creatinine ratio began: 11 days
  decrease in the ratio of total protein/creatinine in rat urine compared to the model group: 56.4%
  decrease in rat serum iC3b+C3d compared to the model group: 62.2%
[5]; 60 mg/kg orally twice daily
  day from which statistical decreases in urine total protein/creatinine ratio began: 11 days
  decrease in the ratio of total protein/creatinine in rat urine compared to the model group: 47.1%
  decrease in rat serum iC3b+C3d compared to the model group: 68.8%
[5]; day 14, across dose groups
  dose dependence of the decrease in urine total protein/creatinine ratio: not significantly dose-dependent

## CCO[C@H]1C[C@H]2CCC(c3ccc(C(=O)O)cc3)(C1)N2Cc1c(OC)cc(C)c2[nH]ccc12 (stereo in doubt) [Example 1-1, 4-((1S,3S,5R)-3-Ethoxy-8-((5-methoxy-7-methyl-1H-indol-4-yl)methyl)-8-azabicyclo[3.2.1]octan-1-yl)benzoic acid]
[5]; 10 mg/kg orally twice daily
  decrease in rat serum iC3b+C3d compared to the model group: 76.2%
[5]; 30 mg/kg orally twice daily
  decrease in rat serum iC3b+C3d compared to the model group: 105.5%
[5]; 90 mg/kg orally twice daily
  decrease in rat serum iC3b+C3d compared to the model group: 108.7%
[2]
  IC50: 27 nM
